Where a SMILES comes first, the peptide text is derived from it. [ ]: non-standard residue; d: D form. ξ: configuration not given here. ξαMeBip(2'-Et,4'-OMe) = CCc1cc(OC)ccc1-c1ccc(CC(C)(N)C(=O)O)cc1; ξαMePhe(2,6-F2) = CC(N)(Cc1c(F)cccc1F)C(=O)O; ξαMe(hhPhe) = CC(N)(CCCc1ccccc1)C(=O)O; ξαMePhe(2-F) = CC(N)(Cc1ccccc1F)C(=O)O; ξαMeS = CC(N)(CO)C(=O)O
Experiments:
[1] = test system: RIN5F (Rat Insulinoma) cells; assay: In vitro glucose-dependent insulin secretion (RIN5F cell assay); type: cell-based; conditions: 16.7-mM glucose load, n = 3, mean ± S.D.
Outline: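 Rat RIN5F cells were preincubated 40 min in Krebs-Ringer buffer with 1.1 mM glucose and 0.5% BSA, pH 7.4, then exposed to test peptidomimetics for 30 min at 37 °C with 16.7 mM or 0 mM glucose. Supernatant insulin was measured by rat insulin ELISA and normalised to total protein (BCA), as pg/μg.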

[2] = biological target: DPP IV enzyme (Homo sapiens, UniProt P27487); assay: Stability against DPP IV enzyme; type: in vitro ADME; conditions: 2 μM, 37° C.; for half-life: read-out: half-life (t1/2) with DPP-IV enzyme
Sequence of DPP IV enzyme (P27487 whole entry, species assumed, the tested form may be a part): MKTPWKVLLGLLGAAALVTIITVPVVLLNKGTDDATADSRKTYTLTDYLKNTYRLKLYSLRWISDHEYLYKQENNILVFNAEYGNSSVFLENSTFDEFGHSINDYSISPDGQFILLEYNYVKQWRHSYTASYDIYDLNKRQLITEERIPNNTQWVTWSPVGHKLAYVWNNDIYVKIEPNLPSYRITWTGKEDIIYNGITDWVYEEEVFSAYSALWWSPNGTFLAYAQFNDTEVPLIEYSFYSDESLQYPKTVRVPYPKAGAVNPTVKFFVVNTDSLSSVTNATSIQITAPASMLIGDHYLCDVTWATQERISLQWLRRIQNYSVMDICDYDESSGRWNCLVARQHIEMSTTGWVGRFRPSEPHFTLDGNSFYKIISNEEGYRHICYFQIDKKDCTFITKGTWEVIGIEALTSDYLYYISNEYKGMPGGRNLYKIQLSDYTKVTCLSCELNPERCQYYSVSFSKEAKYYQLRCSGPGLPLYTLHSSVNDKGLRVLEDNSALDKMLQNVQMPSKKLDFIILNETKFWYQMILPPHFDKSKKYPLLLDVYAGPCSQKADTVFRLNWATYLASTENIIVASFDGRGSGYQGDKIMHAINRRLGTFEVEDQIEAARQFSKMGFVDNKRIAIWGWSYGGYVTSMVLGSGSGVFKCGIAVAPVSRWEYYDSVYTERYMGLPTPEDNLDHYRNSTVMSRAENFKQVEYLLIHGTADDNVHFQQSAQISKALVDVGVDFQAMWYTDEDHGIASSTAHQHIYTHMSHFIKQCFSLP
Description: (§1) Different peptidomimetics (final concentration 2 μM) were incubated with either DPP IV (1:25 mU) or pooled human plasma (7.5 μL) or simulated gastric fluid (pH 1.5; composition HCl, NaCl and Pepsin) or simulated intestinal fluid (pH 7.5) or human liver microsomes, for 0, 2, 4, 6, 12 and 24 h (37° C.; 50 mM triethanolamine-HCl buffer; pH 7.8). […] Reactions were terminated by the addition of TFA/H2O ([…], 10% (v/v)). The reaction products were then applied to a Vydac C18 analytical column (4.6×250-mm) and the major degradation fragment separated from intact peptidomimetic. The column was equilibrated with TFA/H20, at a flow rate of 1 mL/min. Using 0.1% (v/v) TFA in 70% acetonitrile/H2O, the concentration of acetonitrile in the eluting solvent was raised from 0% to 28% over 10 min and from 28% to 42% over 30 min. The absorbance was monitored at 206 nm using UV detector and peaks were collected manually prior to ESI-MS analysis. Area under the curve was measured for test peptidomimetics and their metabolites and percentage degradation were calculated at each time point over a period of 24 h.

[3] = Stability in human plasma; type: in vitro ADME; conditions: 2 μM, 37° C.; for half-life: human, plasma, read-out: half-life (t1/2) in human plasma
Description: as §1

[4] = Stability in liver microsomes; type: in vitro ADME, human; conditions: 2 μM, 37° C.; for half-life: human, microsomes, read-out: half-life (t1/2) in liver microsomes
Description: (§2) Reactions were terminated by the addition of TFA/H2O ([…], 10% (v/v)). […] The column was equilibrated with TFA/H20, at a flow rate of 1 mL/min. […] The absorbance was monitored at 206 nm using UV detector and peaks were collected manually prior to ESI-MS analysis.

[5] = Stability in simulated intestinal fluid; type: in vitro ADME; conditions: 2 μM, 37° C.; for % degradation in 24 h when incubated with simulated intestinal fluid: pH 7.5, 24 h; for half-life: simulated gi fluid, pH 7.5, read-out: half-life (t1/2) in simulated intestinal fluid
Description: as §2

[6] = Stability in simulated gastric fluid; type: in vitro ADME; conditions: 2 μM, 37° C.; for % degradation in 24 h when incubated with simulated gastric fluid: pH 1.5, 24 h; for half-life: simulated gi fluid, pH 1.5, read-out: half-life (t1/2) in simulated gastric fluid
Description: as §2

% degradation in 24 h when incubated with DPP-IV enzyme [2] [%] | half-life (t1/2) in human plasma [3] | % degradation in 24 h when incubated with human plasma [3] [%] | % degradation in 24 h when incubated with liver microsomes [4] [%] | half-life [4] [h] | % degradation in 24 h when incubated with simulated intestinal fluid [5] [%] | half-life [5] [h] | % degradation in 24 h when incubated with simulated gastric fluid [6] [%] | half-life [6] [h] | half-life [2] [h] | half-life [3] [h] | SMILES | Insulin secretion ([1]; 0.1 nM test compd.) [pg/µg/h] | Insulin secretion ([1]; 1 nM test compd.) [pg/µg/h] | Insulin secretion ([1]; 10 nM test compd.) [pg/µg/h]
72 | (9) h | 70 | 100 | 0.5 | 100 | 0.5 | 100 | 0.5 |  |  | CCc1cc(OC)ccc1-c1ccc(CC(C)(NC(=O)[C@H](CC(=O)O)NC(=O)C(C)(CO)NC(=O)[C@@H](NC(=O)C(C)(Cc2ccccc2F)NC(=O)[C@@H](NC(=O)CNC(=O)[C@H](CCC(N)=O)NC(=O)[C@H](CO)NC(=O)[C@H](Cc2c[nH]cn2)NC(=O)[C@@H](N)C(C)C)[C@@H](C)O)[C@@H](C)O)C(=O)NC(C)(CCCc2ccccc2)C(N)=O)cc1 (some centres unmarked) [compound 165] (H-VHSQGT[ξαMePhe(2-F)]T[ξαMeS]D[ξαMeBip(2'-Et,4'-OMe)][ξαMe(hhPhe)]-NH2) | 12.1 ± 0.42 | 14.6 ± 0.41 | 27.8 ± 0.46
00 |  | 00 | 81 | 2 | 00 | > 24 | 52 | 4 | > 24 | > 24 | CCc1cc(OC)ccc1-c1ccc(CC(C)(NC(=O)[C@H](CC(=O)O)NC(=O)C(C)(CO)NC(=O)[C@@H](NC(=O)C(C)(Cc2ccccc2F)NC(=O)[C@@H](NC(=O)CNC(=O)[C@H](CCC(=O)O)NC(=O)[C@H](C)NC(=O)[C@H](Cc2c[nH]cn2)NC(=O)[C@@H](N)C(C)C)[C@@H](C)O)[C@@H](C)O)C(=O)NC(C)(CCCc2ccccc2)C(N)=O)cc1 (some centres unmarked) [compound 170] (H-VHAEGT[ξαMePhe(2-F)]T[ξαMeS]D[ξαMeBip(2'-Et,4'-OMe)][ξαMe(hhPhe)]-NH2) | 12.3 ± 0.33 | 14.8 ± 0.16 | 28.1 ± 0.22
00 |  | 00 | 84 | 2 | 00 | > 24 | 43 | 4 | > 24 | > 24 | CCc1cc(OC)ccc1-c1ccc(CC(C)(NC(=O)[C@H](CC(=O)O)NC(=O)C(C)(CO)NC(=O)[C@@H](NC(=O)C(C)(Cc2c(F)cccc2F)NC(=O)[C@@H](NC(=O)CNC(=O)[C@H](CCC(=O)O)NC(=O)[C@H](C)NC(=O)[C@H](Cc2c[nH]cn2)NC(=O)[C@@H](N)C(C)C)[C@@H](C)O)[C@@H](C)O)C(=O)NC(C)(CCCc2ccccc2)C(N)=O)cc1 (some centres unmarked) [compound 178] (H-VHAEGT[ξαMePhe(2,6-F2)]T[ξαMeS]D[ξαMeBip(2'-Et,4'-OMe)][ξαMe(hhPhe)]-NH2) | 17.1 ± 0.11 | 23.1 ± 0.16 | 37.0 ± 0.29

From patent US20120264685A1 (priority 2009, published 2012)
